In one series the test system is replicon cells. Briefly: Cytotoxicity MTS assay in replicon cells. The class given is cell-based. Conditions: CC50, MTS assay, three days post dosing. As to the method: To measure cell-based anti-HCV activity of the compounds of the present invention, replicon cells (1b-Con1) are seeded at 5000 cells/well in 96-well plates one day prior to treatment with a compound of the invention. Various concentrations of a test compound of the invention in DMSO are then added to the replicon cells, with the final concentration of DMSO at 0.5% and fetal bovine serum at 10% in the assay media. Cells are harvested three days post-dosing and the replicon RNA level is determined using real-time RT-PCR (Taqman assay) with GAPDH RNA as endogenous control. EC50 values are calculated from experiments with 10 serial twofold dilutions of the inhibitor in triplicate. To measure cytotoxicity in replicon cells of an inhibitor, an MTS assay is performed according to the manufacturer's protocol for CellTiter 96 Aqueous One Solution Cell Proliferation Assay (Promega, Cat #G3580) three days post dosing on cells treated identically as in replicon activity assays. CC50 is the concentration of inhibitor that yields 50% inhibition compared to vehicle-treated cells. Cytotoxicity in other types of cells can be measured using the same MTS protocol.

Series [1] in a line: Replicon activity assay (replicon RNA by real-time RT-PCR). It counts as cell-based, HCV. As to conditions: Hepatitis C virus, 72 h; replicon RNA level, three days post-dosing, 10% fetal bovine serum; read-out: Replicon (1a) EC50. (In general: Replicon systems follow genome replication, usually without infectious particles.)

Molecules are shown by their SMILES. Where only a bound is given, the exact number is not on record here.

Consider `CC(C)O[P@@]1(=O)OC[C@H]2O[C@@H](n3ccc(=O)[nH]c3=O)[C@](C)(N)C2O1` (stereo partly drawn), for which, in the series on replicon cells, the Cytotoxicity is greater than 100 µM. The EC50 in series [1] was greater than 100 µM.
The matching figures for `C[C@@]1(N)[C@@H]2O[P@@](=O)(OCc3ccccc3)OC[C@H]2O[C@H]1n1ccc(=O)[nH]c1=O`: greater than 100 µM and 56.2 µM.
`C[C@@]1(N)[C@@H]2O[P@@](=O)(OC3CCCC3)OC[C@H]2O[C@H]1n1ccc(=O)[nH]c1=O` returned a Cytotoxicity with replicon cells greater than 100 µM. Moreover, the EC50 in series [1] was greater than 100 µM.
The matching figures for `CCC(CC)CO[P@@]1(=O)OC[C@H]2O[C@@H](n3ccc(=O)[nH]c3=O)[C@](C)(N)[C@@H]2O1`: greater than 100 µM and 43.2 µM.
On the same counts, the results for `CCCC(CCC)CO[P@@]1(=O)OC[C@H]2O[C@@H](n3ccc(=O)[nH]c3=O)[C@](C)(N)[C@@H]2O1` are greater than 100 µM and greater than 100 µM.
The matching figures for `C[C@@]1(N)C2O[P@@](=O)(OC3CCC3)OC[C@H]2O[C@H]1n1ccc(=O)[nH]c1=O` (stereo partly drawn): greater than 100 µM and greater than 100 µM.

One may read the EC50 as the midpoint of the concentration-response curve.
